Experimental data published in ChEMBL document CHEMBL4507268 (2021).

What was measured:
Conditions in all cases: Compound concentration 1.0 uM
[1] = biological target: Dual specificity mitogen-activated protein kinase kinase 1 (Homo sapiens) (UniProt Q02750)
[2] = biological target: T1, Serine/threonine-protein kinase D3 (Homo sapiens) (UniProt O94806)
T1 sequence (whole entry): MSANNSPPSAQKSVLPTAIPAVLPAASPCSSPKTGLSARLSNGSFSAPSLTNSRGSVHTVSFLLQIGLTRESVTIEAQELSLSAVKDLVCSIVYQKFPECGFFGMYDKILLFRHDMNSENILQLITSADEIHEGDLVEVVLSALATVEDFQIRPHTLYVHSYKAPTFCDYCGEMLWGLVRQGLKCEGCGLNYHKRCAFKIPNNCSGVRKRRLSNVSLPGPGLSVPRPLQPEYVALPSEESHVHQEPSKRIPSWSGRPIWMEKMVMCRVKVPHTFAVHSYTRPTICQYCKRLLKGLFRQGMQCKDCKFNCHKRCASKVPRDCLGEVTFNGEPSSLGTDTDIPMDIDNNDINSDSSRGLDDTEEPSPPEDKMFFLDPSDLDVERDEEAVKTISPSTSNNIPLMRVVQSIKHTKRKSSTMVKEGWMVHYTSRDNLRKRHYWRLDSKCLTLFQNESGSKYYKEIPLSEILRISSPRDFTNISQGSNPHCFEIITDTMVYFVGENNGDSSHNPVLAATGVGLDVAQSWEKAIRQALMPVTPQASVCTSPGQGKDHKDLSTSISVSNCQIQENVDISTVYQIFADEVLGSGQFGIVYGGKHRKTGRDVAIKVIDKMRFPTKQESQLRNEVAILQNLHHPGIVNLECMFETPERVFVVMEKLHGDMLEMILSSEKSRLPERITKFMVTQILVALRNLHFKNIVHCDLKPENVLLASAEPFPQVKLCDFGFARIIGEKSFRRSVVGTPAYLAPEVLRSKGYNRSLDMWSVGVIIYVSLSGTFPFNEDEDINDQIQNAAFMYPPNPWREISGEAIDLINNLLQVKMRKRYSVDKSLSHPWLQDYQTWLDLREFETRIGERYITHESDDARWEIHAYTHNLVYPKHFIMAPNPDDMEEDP

[3] = biological target: Serine/threonine-protein kinase 26 (Homo sapiens) (UniProt Q9P289)
Serine/threonine-protein kinase 26 (Homo sapiens), sequence (Q9P289 2-416 limits assumed): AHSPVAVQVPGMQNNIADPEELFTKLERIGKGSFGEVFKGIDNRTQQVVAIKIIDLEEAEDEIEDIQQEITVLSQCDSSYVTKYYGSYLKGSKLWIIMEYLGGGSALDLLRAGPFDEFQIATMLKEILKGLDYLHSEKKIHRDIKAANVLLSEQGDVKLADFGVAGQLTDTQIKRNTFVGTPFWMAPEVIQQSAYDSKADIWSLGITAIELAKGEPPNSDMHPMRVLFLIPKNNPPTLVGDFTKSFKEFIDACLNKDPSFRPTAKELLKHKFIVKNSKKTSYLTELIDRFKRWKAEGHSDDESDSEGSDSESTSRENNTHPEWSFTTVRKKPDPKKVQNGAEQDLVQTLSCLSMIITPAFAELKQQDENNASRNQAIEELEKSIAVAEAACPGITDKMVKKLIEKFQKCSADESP

[4] = biological target: T2, NUAK family SNF1-like kinase 2 (Homo sapiens) (UniProt Q9H093)
T2 sequence (whole entry): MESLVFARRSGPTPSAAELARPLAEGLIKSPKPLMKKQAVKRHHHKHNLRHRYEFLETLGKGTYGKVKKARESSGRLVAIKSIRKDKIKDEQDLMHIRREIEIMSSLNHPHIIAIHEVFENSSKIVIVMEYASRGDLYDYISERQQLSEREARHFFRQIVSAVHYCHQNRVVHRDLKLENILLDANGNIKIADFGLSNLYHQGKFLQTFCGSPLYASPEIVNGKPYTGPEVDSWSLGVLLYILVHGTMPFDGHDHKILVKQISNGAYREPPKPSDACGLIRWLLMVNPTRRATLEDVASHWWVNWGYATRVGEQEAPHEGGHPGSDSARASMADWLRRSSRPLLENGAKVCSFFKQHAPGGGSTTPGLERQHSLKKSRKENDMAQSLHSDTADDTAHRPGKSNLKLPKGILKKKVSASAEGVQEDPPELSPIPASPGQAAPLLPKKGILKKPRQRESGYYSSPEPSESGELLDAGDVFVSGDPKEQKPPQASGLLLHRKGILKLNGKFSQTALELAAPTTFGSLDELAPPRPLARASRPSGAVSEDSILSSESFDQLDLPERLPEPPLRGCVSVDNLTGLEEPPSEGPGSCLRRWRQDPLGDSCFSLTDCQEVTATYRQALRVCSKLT

[5] = biological target: Serine/threonine-protein kinase pim-1 (Homo sapiens) (UniProt P11309)
Serine/threonine-protein kinase pim-1 (Homo sapiens), sequence (P11309 whole entry, looked up): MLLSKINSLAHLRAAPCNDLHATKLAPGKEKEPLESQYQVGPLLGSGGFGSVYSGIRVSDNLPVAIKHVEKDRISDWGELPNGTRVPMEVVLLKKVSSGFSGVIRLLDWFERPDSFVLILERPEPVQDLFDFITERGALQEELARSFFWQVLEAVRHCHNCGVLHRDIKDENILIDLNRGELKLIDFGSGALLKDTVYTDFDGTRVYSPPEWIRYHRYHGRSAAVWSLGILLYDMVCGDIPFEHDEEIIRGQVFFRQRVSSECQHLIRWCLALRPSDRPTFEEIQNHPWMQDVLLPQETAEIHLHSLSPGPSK

[6] = biological target: Calcium/calmodulin-dependent protein kinase type 1 (Homo sapiens) (UniProt Q14012)
Calcium/calmodulin-dependent protein kinase type 1 (Homo sapiens), sequence (Q14012 whole entry, looked up): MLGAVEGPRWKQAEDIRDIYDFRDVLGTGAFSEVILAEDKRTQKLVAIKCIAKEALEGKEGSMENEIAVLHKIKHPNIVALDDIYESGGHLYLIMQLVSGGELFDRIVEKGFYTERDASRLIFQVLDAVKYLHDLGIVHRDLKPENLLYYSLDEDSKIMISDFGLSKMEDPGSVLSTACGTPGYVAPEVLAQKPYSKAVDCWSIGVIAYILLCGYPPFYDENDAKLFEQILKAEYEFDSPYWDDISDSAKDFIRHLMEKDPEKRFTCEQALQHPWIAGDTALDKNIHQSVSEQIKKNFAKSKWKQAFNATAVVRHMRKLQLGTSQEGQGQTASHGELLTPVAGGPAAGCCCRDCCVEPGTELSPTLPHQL

Homo sapiens = species on record: Homo sapiens
[7] = biological target: Protein-tyrosine kinase 6 (Homo sapiens) (UniProt Q13882)
Protein-tyrosine kinase 6 (Homo sapiens), sequence (Q13882 whole entry, looked up): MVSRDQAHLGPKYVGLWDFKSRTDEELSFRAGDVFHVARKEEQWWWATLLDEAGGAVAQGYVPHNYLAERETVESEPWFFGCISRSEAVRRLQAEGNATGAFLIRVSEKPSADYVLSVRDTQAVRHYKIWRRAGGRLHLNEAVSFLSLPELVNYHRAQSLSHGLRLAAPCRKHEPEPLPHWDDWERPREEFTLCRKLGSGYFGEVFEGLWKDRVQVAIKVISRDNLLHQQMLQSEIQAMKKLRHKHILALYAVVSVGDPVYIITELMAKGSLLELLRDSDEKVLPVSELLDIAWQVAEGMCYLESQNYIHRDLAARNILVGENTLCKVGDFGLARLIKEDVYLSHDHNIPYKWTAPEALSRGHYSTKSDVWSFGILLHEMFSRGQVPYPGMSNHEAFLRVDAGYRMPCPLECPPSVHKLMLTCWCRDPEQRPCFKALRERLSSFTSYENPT

[8] = biological target: Tyrosine-protein kinase Lck (Homo sapiens) (UniProt P06239)
Tyrosine-protein kinase Lck (Homo sapiens), sequence (P06239 2-509 limits assumed): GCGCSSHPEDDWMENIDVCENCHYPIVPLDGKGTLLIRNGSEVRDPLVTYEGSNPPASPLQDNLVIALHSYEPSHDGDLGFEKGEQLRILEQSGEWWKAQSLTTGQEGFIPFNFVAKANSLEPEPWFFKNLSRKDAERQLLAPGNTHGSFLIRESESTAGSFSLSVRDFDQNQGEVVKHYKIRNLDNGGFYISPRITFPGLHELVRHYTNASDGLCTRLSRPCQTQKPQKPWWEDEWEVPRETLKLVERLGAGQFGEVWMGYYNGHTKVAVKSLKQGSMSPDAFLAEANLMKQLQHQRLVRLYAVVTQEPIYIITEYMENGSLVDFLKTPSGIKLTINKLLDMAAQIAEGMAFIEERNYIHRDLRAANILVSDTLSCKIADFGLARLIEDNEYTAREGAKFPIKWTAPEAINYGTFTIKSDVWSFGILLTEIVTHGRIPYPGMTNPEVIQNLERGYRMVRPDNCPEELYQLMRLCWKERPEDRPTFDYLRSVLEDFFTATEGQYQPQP

[9] = biological target: CDK9/cyclin T1 (Homo sapiens) (UniProt O60563+P50750)
[10] = biological target: Tyrosine-protein kinase Fgr (Homo sapiens) (UniProt P09769)
Tyrosine-protein kinase Fgr (Homo sapiens), sequence (P09769 2-529 limits assumed): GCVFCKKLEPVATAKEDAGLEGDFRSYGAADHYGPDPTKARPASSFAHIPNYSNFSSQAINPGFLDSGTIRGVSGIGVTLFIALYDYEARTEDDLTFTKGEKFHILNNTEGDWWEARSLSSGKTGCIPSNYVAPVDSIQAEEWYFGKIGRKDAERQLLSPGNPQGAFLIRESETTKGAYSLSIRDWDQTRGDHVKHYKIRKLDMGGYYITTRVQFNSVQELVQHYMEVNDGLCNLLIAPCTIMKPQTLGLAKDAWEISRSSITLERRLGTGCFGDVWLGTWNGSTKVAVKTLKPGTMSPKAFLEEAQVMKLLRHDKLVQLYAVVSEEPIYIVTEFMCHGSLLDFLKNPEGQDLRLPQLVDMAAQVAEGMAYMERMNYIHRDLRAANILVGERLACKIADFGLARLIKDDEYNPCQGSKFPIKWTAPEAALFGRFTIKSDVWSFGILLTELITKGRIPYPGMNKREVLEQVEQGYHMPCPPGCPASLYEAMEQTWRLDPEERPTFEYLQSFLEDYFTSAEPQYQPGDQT

[11] = biological target: T3, Serine/threonine-protein kinase 4 (Homo sapiens) (UniProt Q13043)
T3 sequence (whole entry): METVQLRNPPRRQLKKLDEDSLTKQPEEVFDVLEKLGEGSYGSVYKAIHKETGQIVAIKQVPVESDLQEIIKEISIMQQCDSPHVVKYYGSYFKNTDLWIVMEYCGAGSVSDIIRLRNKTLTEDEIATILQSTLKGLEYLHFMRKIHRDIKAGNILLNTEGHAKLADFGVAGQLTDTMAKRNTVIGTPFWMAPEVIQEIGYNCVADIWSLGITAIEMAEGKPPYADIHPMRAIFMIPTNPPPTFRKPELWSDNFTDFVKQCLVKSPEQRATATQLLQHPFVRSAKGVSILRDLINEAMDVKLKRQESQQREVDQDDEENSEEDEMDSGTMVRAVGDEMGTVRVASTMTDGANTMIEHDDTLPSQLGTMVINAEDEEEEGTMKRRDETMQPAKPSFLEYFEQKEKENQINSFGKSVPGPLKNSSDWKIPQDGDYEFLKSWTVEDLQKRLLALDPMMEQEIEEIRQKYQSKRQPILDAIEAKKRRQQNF

[12] = biological target: Calcium/calmodulin-dependent protein kinase type 1D (Homo sapiens) (UniProt Q8IU85)
Calcium/calmodulin-dependent protein kinase type 1D (Homo sapiens), sequence (Q8IU85 whole entry, looked up): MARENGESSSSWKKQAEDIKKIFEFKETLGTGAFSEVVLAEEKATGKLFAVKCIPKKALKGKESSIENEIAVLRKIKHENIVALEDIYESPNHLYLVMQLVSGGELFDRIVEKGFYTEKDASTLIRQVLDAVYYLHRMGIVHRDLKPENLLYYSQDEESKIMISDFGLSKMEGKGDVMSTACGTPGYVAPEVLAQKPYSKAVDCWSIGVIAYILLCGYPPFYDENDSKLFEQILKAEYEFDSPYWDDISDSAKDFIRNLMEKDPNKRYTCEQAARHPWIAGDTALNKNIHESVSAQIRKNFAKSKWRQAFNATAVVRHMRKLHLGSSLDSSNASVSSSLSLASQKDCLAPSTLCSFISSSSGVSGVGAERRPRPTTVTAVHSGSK

[13] = biological target: T4, Serine/threonine-protein kinase Sgk2 (Homo sapiens) (UniProt Q9HBY8)
T4 sequence (whole entry): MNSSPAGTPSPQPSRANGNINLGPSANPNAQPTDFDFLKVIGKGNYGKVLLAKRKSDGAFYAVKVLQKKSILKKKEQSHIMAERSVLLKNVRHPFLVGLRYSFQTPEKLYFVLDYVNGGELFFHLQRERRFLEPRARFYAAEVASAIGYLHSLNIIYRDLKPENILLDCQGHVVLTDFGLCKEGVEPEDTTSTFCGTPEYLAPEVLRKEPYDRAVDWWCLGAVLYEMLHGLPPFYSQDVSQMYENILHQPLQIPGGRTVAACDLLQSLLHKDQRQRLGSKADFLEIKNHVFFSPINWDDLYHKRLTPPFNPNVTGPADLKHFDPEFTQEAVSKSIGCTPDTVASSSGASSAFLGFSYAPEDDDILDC

Measured: % residual kinase activity

Dual specificity mitogen-activated protein kinase kinase 1 (Homo sapiens), sequence (Q02750 whole entry): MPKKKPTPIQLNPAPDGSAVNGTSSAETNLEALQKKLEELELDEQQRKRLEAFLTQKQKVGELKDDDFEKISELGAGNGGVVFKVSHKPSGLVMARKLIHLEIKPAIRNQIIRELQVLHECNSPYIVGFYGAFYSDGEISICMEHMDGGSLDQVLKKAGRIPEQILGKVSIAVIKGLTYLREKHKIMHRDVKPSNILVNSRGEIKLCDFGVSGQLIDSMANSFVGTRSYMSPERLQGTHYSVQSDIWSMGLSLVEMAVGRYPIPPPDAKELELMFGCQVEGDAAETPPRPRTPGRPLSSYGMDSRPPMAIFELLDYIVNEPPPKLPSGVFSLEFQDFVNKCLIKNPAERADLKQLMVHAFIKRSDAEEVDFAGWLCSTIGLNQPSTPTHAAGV

CN1CCN(c2cnc3c(C4CCN(C(=O)c5ccc(OC(F)(F)F)cc5N)CC4)ncnc3c2)CC1 [BAY-885]
inactive: [1] 115% | [2] 100% | [3] 103% | [4] 111% | [5] 111% | [6] 109% | Homo sapiens 112% | [7] 108% | [8] 105% | [9] 103% | [10] 98% | [11] 117% | [12] 94% | [13] 89%
